row,SMILES,melting point
1,C=CCOC(=O)c1ccc(NC(=O)C(C(=O)OC)c2ccc3c(c2)C(C)(C)CCC3(C)C)cc1 (stereo unspecified),155 to 156 °C
2,Cc1c(C(=O)O)cnn1-c1cc(Cl)cc(Cl)c1,229 to 230 °C
3,CC(C)(C)c1ccc2sc3cc(-c4nnn[nH]4)ccc3c(=O)c2c1,277 °C
4,C=C1C2CCCCC2CC2C(OC)OCC12 (stereo unspecified),53 to 55 °C
5,Cc1cccc(C2(C)OC(C)C(C)O2)c1NC(=O)CCl (stereo unspecified),55 to 57 °C
6,Nc1ncc([N+](=O)[O-])c(OCc2ccccc2)n1,164 to 167 °C
7,CN(C)C(=O)c1cn(C)c2nc3cc(F)c(F)cc3cc2c1=O,324 °C
8,Cc1cccc(-c2nc3cccnn3c2-c2ccnc(N)n2)c1,250 to 251 °C
9,C#C[C@]1(C)CCc2c(C)c(OC)c(C)c(C)c2O1,94 to 97 °C
10,CCCCCCCCCCCCCCCCOc1cc(NS(=O)(=O)c2cc([N+](=O)[O-])ccc2OCCOC)c(O)cc1C,85.5 to 86 °C
11,CC(C)c1ccc(CN2CCC(NC(=O)NC(=O)c3ccccc3)CC2)cc1,240 to 242 °C
12,Cc1ccccc1COCn1cc(Cl)cnc1=O,88 °C
13,CC(C)(C)OC(=O)NC1CCCC(NC(=O)c2ccc(-c3[nH]nc4c3C(=O)c3c(NC(=O)NN5CCOCC5)cccc3-4)s2)C1 (stereo unspecified),> 300 °C
14,Cc1ccc(C(=O)c2c(-c3ccc(OCC(O)CNC(C)C)cc3)oc3ccccc23)cc1 (stereo unspecified),65 to 75 °C
15,CC(C)(C)OC(=O)N1CCC(CN2C(=O)C3(COc4cc5c(cc43)C(C)(C)CO5)c3ccccc32)CC1 (stereo unspecified),65 to 75 °C
16,Cc1nc(Cl)c2n1-c1ccccc1C(c1ccccc1F)N(C)C2 (stereo unspecified),156 to 158 °C
17,N#CC(c1ccc(C(O)C(Cc2cccc(OC(F)(F)C(F)F)c2)NC(=O)c2cccc3c2C=CCCC3)cc1)N1CCCCC1 (racemic),152 to 154 °C
18,Cc1noc(NS(=O)(=O)c2ccsc2C(=O)NCc2ccccc2)c1Br,186 to 190 °C
19,O=C(c1ccccc1)N1CCCc2ncc3ccccc3c21,208 to 210 °C
20,CCNc1cccc2c1C(=O)c1cccc(NCC)c1C2=O,193 to 195 °C
21,CNC(=O)c1ccc(-c2ccc(NC(=O)NCc3cccnc3)cc2)nc1NCc1ccncc1,218 to 219 °C
22,O=C(O)c1cccc(C(=O)CCl)n1,184 to 189 °C
23,COC(=O)c1ccc(COc2cc3c(=O)ccn4c5ccc(Br)cc5c(c2)c34)nc1,75.2 to 76.3 °C
24,Cc1cc(C=Cc2ccccc2OCC2CO2)on1 (stereo unspecified),99 to 100 °C
25,CCCc1nc2c(N)nc3cccnc3c2n1C1(OC)CCCCC1,187 to 188 °C
26,COc1ccc(C(=O)C2=C(c3ccccc3)CCc3ccccc32)cc1,106 to 107 °C

row,SMILES,melting point
1,CC(C)(C)c1cc(CN2CC(O)C2)cc(C(C)(C)C)c1O,139 to 142 °C
2,Cc1nc2c(c3ccccc3n3nnnc23)n1CC(C)(C)O,202 to 205 °C
3,COc1ccc(-c2ccc(COCCc3cccc(NS(=O)(=O)C(F)(F)F)c3)cc2)cc1,96 to 98 °C
4,CC(C)Nc1cccnc1N1CCN(C(=O)c2ccc(C(=O)NCCO)cc2)CC1,182 to 184 °C
5,NC(=O)c1cccc(-c2ccc(Cl)c3cc(Cc4ccc(F)c(F)c4)sc23)c1,185 to 186 °C
6,COc1ccccc1C1=Nc2ccc(N3CCOCC3)cc2C(=O)C1,262 to 264 °C
7,Cc1ccc(C)n1CCNC(=O)Nc1ccc(Cl)cc1,175 to 177 °C
8,C=CCc1cc(C=C2SCNC2=O)cc(CC=C)c1O,184 to 188 °C
9,COc1cc(OCc2ccccn2)ccc1/C=C/c1cc(/C=C/c2ccc3[nH]ccc3c2)n[nH]1,98 to 104 °C
10,O=C1N=c2cc(Cl)c(Cl)cc2=NC1=O,> 400 °C
11,Nc1ccc(CCC(=O)N(c2ccccc2)c2ccccc2)cc1N,122 to 123 °C
12,O=C(Nc1ccc(N2CCCC2)cc1)N(C[C@H]1CC[C@H](CN(C(=O)Nc2ccc(N3CCCC3)cc2)C2CCCCC2)CC1)C1CCCCC1,149 to 152 °C
13,CNN(Cc1ccccc1N)c1ccccc1,57 to 59 °C
14,CCC1C(=O)Nc2cccc3c2N1C(=O)C3c1ccccc1 (stereo unspecified),205 to 208 °C
15,FC(F)(F)Oc1ccc(Nc2cc(-c3ccccc3)ncn2)cc1,245 to 247 °C
16,CS(=O)(=O)c1ccc(-c2cc(=O)n(CC(F)(F)F)nc2-c2ccc(F)cc2)cc1,177 to 179 °C
17,CC(C)(C)OC(=O)N1CCC[C@@H](O)[C@H](C(=O)O)C1,98.5 to 102 °C
18,O=[N+]([O-])c1ccc(-c2cc3c(Nc4ccc(Cl)cc4F)ncnc3o2)cc1,174 to 177 °C
19,Cc1noc(-c2ncn3c2[C@@H]2CCCN2C(=O)c2c(Br)cccc2-3)n1,237 to 238 °C
20,Nc1ccc(CP2(=O)OCCCCO2)cc1,128 to 129 °C
21,O=C(NCCNCCNC(=O)OCc1ccccc1)OCc1ccccc1,73 to 75 °C
22,O=C(c1ccc(F)cc1)N1CCC[C@H](c2noc(-c3ccc(F)cc3)n2)C1,120 to 123 °C
23,Cn1cc(C2=C(c3cn(CCCNC(N)=NC#N)c4ccccc34)C(=O)NC2=O)c2ccccc21,168 to 170 °C
24,CCCCCNC(=O)C(C)Cc1ccc2c(c1)c(Cc1ccc(C(=O)NS(=O)(=O)c3ccccc3C)cc1OC)cn2C (stereo unspecified),110 to 113 °C
25,CC(=O)Nc1cc(F)ccc1F,124 to 125 °C

# From a melting point compilation (Tetko et al.; mined from patent text by program, amines drawn as free bases though some values may be those of a salt)
